Results on eleven molecules are retold here after PubChem BioAssay (NCI).

Test systems include A498 renal; K-562 leukemia; KM12 colon; MCF7 breast; MDA-MB-231 breast; MOLT-4 leukemia; RPMI-8226 leukemia; RXF 393 renal; SK-MEL-28 melanoma; SK-MEL-5 melanoma; SNB-75 CNS; UACC-62 melanoma; UO-31 renal; HOP-92 NSCLC.
Assay in all cases: NCI anticancer screen, dose series, 48 h

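Exposure lasted 48 hours, with cells grown in 96-well plates and compounds tested at five concentrations. GI50: concentration for 50% inhibition of growth. The concentration for full growth arrest is given as TGI.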

As for `O=C(NNC(=S)NC1CCCCC1)C12CC3CC(CC(C3)C1)C2`, the TGI in the assay with A498 renal, in the assay with K-562 leukemia, with KM12 colon, with MCF7 breast, with MDA-MB-231 breast and in the assay on MOLT-4 leukemia was greater than 100 µM in each case. For the same molecule, the TGI with RPMI-8226 leukemia, in the assay with RXF 393 renal, in the assay with SK-MEL-28 melanoma, in the assay on SK-MEL-5 melanoma, in the assay with SNB-75 CNS and in the assay with UACC-62 melanoma was greater than 100 µM throughout. In the assay on UO-31 renal, the TGI was greater than 100 µM.
Turning to `CCCCCCCCCOCC(COP(=O)([O-])OCC[N+](C)(C)C)OC` (configuration not stated), the TGI in the assay on A498 renal, in the assay on HOP-92 NSCLC, with K-562 leukemia, in the assay on KM12 colon, in the assay with MCF7 breast and in the assay with MOLT-4 leukemia was greater than 100 µM throughout. Besides, the TGI in the assay on RPMI-8226 leukemia, in the assay on RXF 393 renal, with SK-MEL-28 melanoma, with SK-MEL-5 melanoma, in the assay with SNB-75 CNS and in the assay with UACC-62 melanoma was greater than 100 µM each time. This molecule also returned a TGI with UO-31 renal greater than 100 µM.
Regarding `CCCc1cc(COC)c(C#N)c(=O)[nH]1`, the TGI with A498 renal, in the assay with K-562 leukemia, in the assay on KM12 colon, in the assay with MCF7 breast, in the assay with MDA-MB-231 breast and with MOLT-4 leukemia was greater than 100 µM in each case. Moreover, the TGI with RPMI-8226 leukemia, in the assay with RXF 393 renal, in the assay on SK-MEL-28 melanoma, with SK-MEL-5 melanoma, in the assay with UACC-62 melanoma and in the assay on UO-31 renal was greater than 100 µM throughout.
For `CC1CCC2CC(=O)OC([C@@H]3C(=O)O[C@@H](C4=CCCC4)C4C(C)CCC43)C12` (some centres not stated), the TGI in the assay with K-562 leukemia, in the assay with KM12 colon, in the assay with MOLT-4 leukemia, with RPMI-8226 leukemia, with RXF 393 renal and in the assay on SK-MEL-28 melanoma was greater than 100 µM throughout. Further, the TGI in the assay on SK-MEL-5 melanoma, with SNB-75 CNS, in the assay on UACC-62 melanoma and in the assay with UO-31 renal was greater than 100 µM each time.
Take `COc1cc(OC)cc(-c2cc(=O)c3cc4c(cc3[nH]2)OCO4)c1`: the TGI with HOP-92 NSCLC is 21.1 µM; in the assay with K-562 leukemia it was greater than 50.2 µM; with MOLT-4 leukemia, greater than 51 µM; in the assay on RPMI-8226 leukemia, greater than 58.8 µM; in the assay with RXF 393 renal it was 0.518 µM; with SK-MEL-28 melanoma it was greater than 71.7 µM. In addition, the TGI was 8.23 µM in the assay with SK-MEL-5 melanoma, 43.7 µM in the assay with SNB-75 CNS, greater than 53.3 µM in the assay on UACC-62 melanoma and greater than 88.9 µM in the assay with UO-31 renal. For the same molecule, the GI50 with RXF 393 renal was 0.219 µM.
For the molecule `CCOC(=O)c1nc2cc(C(F)(F)F)ccc2nc1Nc1ccc(C(=O)OC)s1`, the TGI with A498 renal is 81.6 µM; in the assay with HOP-92 NSCLC, 54 µM; in the assay on K-562 leukemia, greater than 100 µM; in the assay with KM12 colon, greater than 100 µM; in the assay with MDA-MB-231 breast it was 94.6 µM; in the assay with MOLT-4 leukemia, greater than 100 µM. In addition, the TGI was greater than 100 µM in the assay with RPMI-8226 leukemia; 50.8 µM with RXF 393 renal; greater than 100 µM in the assay with SK-MEL-28 melanoma; greater than 100 µM in the assay with SK-MEL-5 melanoma; greater than 100 µM in the assay on SNB-75 CNS; 66.8 µM in the assay with UACC-62 melanoma. In addition, in the assay with UO-31 renal, the TGI was greater than 100 µM.
On to `COC(=O)c1cc(NC(=O)Cc2c[nH]c3ccccc23)cn1C`, for which the TGI in the assay with A498 renal, in the assay on K-562 leukemia, in the assay with KM12 colon, in the assay with MCF7 breast, with MDA-MB-231 breast and in the assay on MOLT-4 leukemia was greater than 100 µM throughout. Moreover, the TGI is 63.9 µM in the assay on RPMI-8226 leukemia; greater than 100 µM in the assay on RXF 393 renal; greater than 100 µM in the assay with SK-MEL-28 melanoma; greater than 100 µM in the assay on SK-MEL-5 melanoma; greater than 100 µM in the assay on UACC-62 melanoma; greater than 100 µM in the assay with UO-31 renal.
On to `CSCSCC(CO)NC(=O)/C(C)=C\c1c(C)[nH]c(=O)[nH]c1=O` (configuration not stated), for which the TGI was greater than 250 µM in the assay on A498 renal; 23.9 µM in the assay with HOP-92 NSCLC; greater than 250 µM in the assay with K-562 leukemia; greater than 250 µM in the assay on KM12 colon; greater than 250 µM with MCF7 breast; greater than 250 µM in the assay on MOLT-4 leukemia. Besides, the TGI in the assay on RPMI-8226 leukemia, with RXF 393 renal, in the assay on SK-MEL-28 melanoma, in the assay on SK-MEL-5 melanoma, in the assay on SNB-75 CNS and with UACC-62 melanoma was greater than 250 µM throughout. In the assay with UO-31 renal, this molecule displayed a TGI greater than 250 µM.
On to `COc1cccc(C2SC(N)=Nc3c2c(C)nn3C(=O)Cc2ccccc2)c1` (configuration not stated), for which the TGI in the assay with A498 renal, with K-562 leukemia, in the assay on KM12 colon, with MCF7 breast, with MDA-MB-231 breast and with MOLT-4 leukemia was greater than 100 µM in each case. Also, the TGI with RPMI-8226 leukemia, with SK-MEL-28 melanoma, in the assay on SK-MEL-5 melanoma, in the assay with SNB-75 CNS, with UACC-62 melanoma and in the assay on UO-31 renal was greater than 100 µM each time.
For the molecule `O=C(c1ccc(Cl)cc1)c1ccc(OCCCOc2ccc(C(=O)c3ccc(Cl)cc3)cc2Cl)c(Cl)c1`, the TGI in the assay on HOP-92 NSCLC, in the assay on K-562 leukemia, in the assay on KM12 colon, with MOLT-4 leukemia, in the assay with RPMI-8226 leukemia and in the assay on RXF 393 renal was greater than 100 µM each time. Also, the TGI in the assay with SK-MEL-28 melanoma, with SK-MEL-5 melanoma, with SNB-75 CNS and in the assay with UACC-62 melanoma was greater than 100 µM each time.
Turning to `CC(C)C1NC(=O)CC(c2ccccc2)N(N=O)C1c1ccccc1` (configuration not stated), the TGI with A498 renal, in the assay with HOP-92 NSCLC, in the assay on K-562 leukemia, in the assay with KM12 colon, in the assay with MCF7 breast and in the assay on MOLT-4 leukemia was greater than 100 µM each time. For the same molecule, the TGI with RPMI-8226 leukemia, in the assay on RXF 393 renal, in the assay on SK-MEL-28 melanoma, in the assay on SK-MEL-5 melanoma, in the assay on SNB-75 CNS and in the assay with UACC-62 melanoma was greater than 100 µM each time. The molecule also displayed a TGI in the assay with UO-31 renal greater than 100 µM.
